Measurements from PMC10281575, “PfCRT mutations conferring piperaquine resistance in falciparum malaria shape the kinetics of quinoline drug binding and transport” (PLOS Pathogens, 2023).
Where “and” joins values, the source holds several entries; their conditions need not be identical. Equal entries are not always repeated.

Biological target: T1, PfCRT^Dd2_H97Y (Plasmodium falciparum, UniProt Q8IBZ9, A220S/H97Y/I356T/K76T/M74I/N326S/N75E/Q271E/R371I)
T1 construct: expressed in transfected cells; host or cells: Xenopus laevis oocytes injected with in vitro transcribed RNA (pSP64T)
T1 sequence (Q8IBZ9 1-424 M74I/N75E/K76T/H97Y/A220S/Q271E/N326S/I356T/R371I): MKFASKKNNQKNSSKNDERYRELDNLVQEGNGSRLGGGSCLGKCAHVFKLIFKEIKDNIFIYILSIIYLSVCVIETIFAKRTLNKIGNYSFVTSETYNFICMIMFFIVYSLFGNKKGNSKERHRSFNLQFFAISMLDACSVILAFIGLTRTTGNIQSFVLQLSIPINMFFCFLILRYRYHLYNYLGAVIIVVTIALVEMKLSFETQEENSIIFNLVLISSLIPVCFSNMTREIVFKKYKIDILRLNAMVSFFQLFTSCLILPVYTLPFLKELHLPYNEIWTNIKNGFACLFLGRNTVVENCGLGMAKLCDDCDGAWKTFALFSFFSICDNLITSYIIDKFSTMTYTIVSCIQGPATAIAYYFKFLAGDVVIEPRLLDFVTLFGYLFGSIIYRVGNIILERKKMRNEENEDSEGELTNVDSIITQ
Assay: Radiolabeled drug uptake in X. laevis oocytes expressing PfCRT^Dd2_H97Y
Assay type: cell-based
Details: for Vmax, maximal velocity of drug transport / Km: Michaelis-Menten fit, 10-500 μM drug, pH 6; for Km: read-out: KM, Michaelis constant
Description: A codon-optimized coding sequence of the Dd2 isoform of PfCRT (PfCRT^Dd2) was subcloned into the pSP64T expression vector [21]. To generate the necessary mutations to introduce the amino acid substitutions H97Y, F145I, M343L or G353V into the pfcrt sequence, the overlap extension method was used. A region from the 5’-untranslated Xenopus β-globin sequence to the respective 3’ region, containing the full length pfcrt coding sequence, was amplified using the following primer pairs: for the H97Y mutation, numbers 1/4 and 2/3; for the F145I mutation, numbers 1/6 and 2/5; for the M343L mutation, numbers 1/8 and 2/7; and for the G353V mutation, numbers 1/10 and 2/9 (for primers, see S2 Table). Both PCR products were used as template for amplification of the final product using primers number 1/2. The resulting fragment was cloned into the pSP64T expression vector, and the presence of the desired mutation was confirmed by sequencing.
Adult female X. laevis frogs (purchased from NASCO) were anesthetized by submersion in a solution of 0.3% (w/v) 3-amino benzoate methanesulfonate for 15 min. Sections of the ovary were surgically removed and placed in Ca^2+-free ND96 buffer supplemented with 0.1% collagenase D (w/v; Roche), 0.5% BSA (w/v) and 9 mM Na2HPO4 at 18°C for 14–16 h while gently shaking. The oocytes were then washed several times with ND96 buffer (5 mM HEPES, pH 7.5, 96 mM NaCl, 2 mM KCl, 1.8 mM CaCl2, 1 mM MgCl2), supplemented with […] gentamycin. Healthy-looking stage V-VI oocytes were manually selected and randomly grouped for injection. A codon-optimized coding sequence of PfCRT was subcloned into the pSP64T expression vector and subsequently linearized using the restriction endonuclease BamHI or SalI (New England Biolabs GmbH). RNA for injection was transcribed in vitro using the mMESSAGE mMACHINE SP6 Transcription kit (Ambion), diluted with nuclease-free water to a final concentration of 0.6 μg/μL and stored at -80°C. RNA was injected using precision-bore glass capillary tubes (3.5-inch glass capillaries; Drummond Scientific Co.), which were pulled on a vertical puller (P-87 Flaming/Brown micropipette puller, Sutter Instrument Co.) and graduated. The micropipettes were connected to a microinjector (Nanoject II Auto-Nanoliter Injector, Drummond Scientific Co.). Injection was conducted under stereomicroscopic control. 50 nL of nuclease-free water alone (control oocytes) or 50 nL of nuclease-free water containing 30 ng of RNA was injected per oocyte. Injected oocytes were kept for 72 h at 18°C in ND96 buffer with two daily buffer changes before being used for further experiments.
Drug transport assays were performed as previously described. Briefly, measurements of radiolabeled drug uptake were made over 1 h, unless otherwise specified. […] Where specified, one or more unlabeled drugs were also present at the indicated concentrations. […] The uptake assays were terminated by removing the oocytes from the reaction medium and washing them three times with 2 mL of ice-cold ND96 buffer. Each oocyte was transferred to a separate scintillation vial and lysed by the addition of 200 μL of a 5% SDS solution. The radioactivity in the sample was measured using a liquid scintillation analyser Tri-Carb 4910 TR (PerkinElmer). Water-injected oocytes were analyzed in parallel as a negative control. The buffer from each condition was measured in duplicate in parallel to each experiment to transform counts per minute into pmol of drug. Drug uptake attributable to PfCRT was determined by subtracting the background uptake from water-injected oocytes from that of PfCRT-expressing oocytes. In all cases, at least three independent experiments were performed on oocytes from different frogs, and for each condition in an experiment, measurements were made from 10 oocytes per treatment.

Row | Structure (SMILES) | PfCRTDd2_H97Y-mediated PPQ uptake at 10 µM PPQ (10 µM PPQ, single replicates) | PfCRTDd2_H97Y-mediated PPQ uptake at 50 µM PPQ (50 µM PPQ, single replicates) | PfCRTDd2_H97Y-mediated PPQ uptake at 100 µM PPQ (100 µM PPQ, single replicates) | PfCRTDd2_H97Y-mediated PPQ uptake at 300 µM PPQ (300 µM PPQ, single replicates) | PfCRTDd2_H97Y-mediated PPQ uptake at 500 µM PPQ (500 µM PPQ, single replicates) | Vmax, maximal velocity of drug transport | Km [µM] | PfCRTDd2_H97Y-mediated CQ uptake at 10 µM CQ (10 µM CQ, single replicates) | PfCRTDd2_H97Y-mediated CQ uptake at 50 µM CQ (50 µM CQ, single replicates) | PfCRTDd2_H97Y-mediated CQ uptake at 100 µM CQ (100 µM CQ, single replicates) | PfCRTDd2_H97Y-mediated CQ uptake at 300 µM CQ (300 µM CQ, single replicates) | PfCRTDd2_H97Y-mediated CQ uptake at 500 µM CQ (500 µM CQ, single replicates)
1 | Clc1ccc2c(N3CCN(CCCN4CCN(c5ccnc6cc(Cl)ccc56)CC4)CC3)ccnc2c1 [PPQ, piperaquine] | 12.86 pmol oocyte-1 h-1 and 5.01 pmol oocyte-1 h-1 and 5.38 pmol oocyte-1 h-1 | 31.25 pmol oocyte-1 h-1 and 73.07 pmol oocyte-1 h-1 and 57.01 pmol oocyte-1 h-1 and 61.85 pmol oocyte-1 h-1 and 37.57 pmol oocyte-1 h-1 and 17.78 pmol oocyte-1 h-1 | 97.03 pmol oocyte-1 h-1 and 61.02 pmol oocyte-1 h-1 and 41.93 pmol oocyte-1 h-1 and 45.11 pmol oocyte-1 h-1 | 103.79 pmol oocyte-1 h-1 and 76.95 pmol oocyte-1 h-1 and 76.45 pmol oocyte-1 h-1 and 130.46 pmol oocyte-1 h-1 | 133.65 pmol oocyte-1 h-1 and 96.27 pmol oocyte-1 h-1 and 74.35 pmol oocyte-1 h-1 and 131.71 pmol oocyte-1 h-1 | 131 ± 6 pmol oocyte^-1 h^-1 and 183.94 pmol oocyte^-1 h^-1 | 106 ± 14 | – | – | – | – | –
2 | CCN(CC)CCCC(C)Nc1ccnc2cc(Cl)ccc12 (centres unmarked) [CQ, chloroquine] | – | – | – | – | – | 24 ± 1 pmol oocyte^-1 h^-1 | 184 ± 16 | 0.94 pmol oocyte-1 h-1 and 1.60 pmol oocyte-1 h-1 and 1.36 pmol oocyte-1 h-1 | 8.24 pmol oocyte-1 h-1 and 3.56 pmol oocyte-1 h-1 and 5.41 pmol oocyte-1 h-1 and 4.92 pmol oocyte-1 h-1 and 5.15 pmol oocyte-1 h-1 | 9.39 pmol oocyte-1 h-1 and 7.90 pmol oocyte-1 h-1 and 6.68 pmol oocyte-1 h-1 | 13.78 pmol oocyte-1 h-1 and 16.15 pmol oocyte-1 h-1 and 14.38 pmol oocyte-1 h-1 | 17.49 pmol oocyte-1 h-1 and 19.24 pmol oocyte-1 h-1 and 15.35 pmol oocyte-1 h-1
